Source: patent publication US20230147257A1 (DONG-A ST CO., LTD., priority 2020, published 2023)
Like-named read-outs stand apart in the source and are kept apart here.

Key:
AhR [1] = target: T1, AhR (Mus musculus, UniProt P30561); assay: In vitro assay 2: XRE-luciferase reporter assay, antagonism in mouse cell line (Hepa1c1c7); type: cell-based; settings: Hepa1c1c7 XRE-Luc, cells treated with kynurenine (#), 6 hours
T1 sequence (P30561 1-848): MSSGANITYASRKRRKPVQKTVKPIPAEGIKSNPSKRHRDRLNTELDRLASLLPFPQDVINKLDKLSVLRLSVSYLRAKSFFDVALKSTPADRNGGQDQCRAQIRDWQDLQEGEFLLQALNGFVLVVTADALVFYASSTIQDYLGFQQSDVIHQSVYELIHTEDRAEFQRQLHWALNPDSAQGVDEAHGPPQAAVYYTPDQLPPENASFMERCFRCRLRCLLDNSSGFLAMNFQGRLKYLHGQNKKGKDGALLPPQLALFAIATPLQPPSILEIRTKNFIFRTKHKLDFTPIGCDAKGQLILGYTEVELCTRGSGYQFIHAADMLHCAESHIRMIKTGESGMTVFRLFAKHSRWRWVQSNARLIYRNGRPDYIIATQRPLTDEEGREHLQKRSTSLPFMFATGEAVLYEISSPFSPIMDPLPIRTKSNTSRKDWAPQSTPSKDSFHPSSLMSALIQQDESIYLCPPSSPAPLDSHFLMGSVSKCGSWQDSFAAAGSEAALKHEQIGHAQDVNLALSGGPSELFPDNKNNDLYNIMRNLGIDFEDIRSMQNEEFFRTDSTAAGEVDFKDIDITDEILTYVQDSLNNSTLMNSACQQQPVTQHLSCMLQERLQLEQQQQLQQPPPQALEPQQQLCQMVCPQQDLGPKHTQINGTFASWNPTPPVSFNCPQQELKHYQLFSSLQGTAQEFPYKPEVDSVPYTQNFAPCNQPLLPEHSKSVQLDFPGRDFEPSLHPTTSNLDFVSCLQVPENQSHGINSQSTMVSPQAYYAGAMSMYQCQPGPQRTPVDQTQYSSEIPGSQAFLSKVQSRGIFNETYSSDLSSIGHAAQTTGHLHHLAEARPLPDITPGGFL
Source text: In Vitro XRE-Luciferase Reporter Assay (In Vitro Assay 1, 2, 3)
AhR activation leads the induction of target gene expression such as CYP1A1 and CYP1B1 by AhR binding to AhR-responsive DNA elements also known as xenobiotics responsive elements (XRE). The assay for measuring AhR activity herein is the luciferase assay using cell lines transfected with luciferase reporter plasmid containing XREs at the upstream of the reporter gene. Cells transfected with XRE-luciferase reporter (XRE-Luc) plasmid drive luciferase activity reflecting activation and inhibition of AhR in the cells. In addition to transfection with XRE-reporter vector, cells were co-transfected with Nano-luciferase reporter gene construct (Nano-Luc) containing constitutively active promoter as internal control. Kynurenine (an endogenous AhR agonist) was used to stimulate cells to test antagonistic properties of the compounds. The half-maximal inhibitory concentration (IC50) or half-maximal effective concentration (EC50) value was calculated using nonlinear regression (four parameters) with Prism8.0 software (GraphPad).
In Vitro Assay 2: Antagonism in Mouse Cell Line
Hepa1c1c7 (murine liver cancer cell line) cells co-transfected with XRE-Luc and Nano-Luc plasmids were plated in complete medium and incubated overnight at 37° C. in a CO2 incubator. Following incubation, cells were treated with AhR activating ligands such as kynurenic acid, kynurenine(#) with or without test compounds for 6 hours. Firefly luciferase and Nano-luciferase activity was measured using Nano-glo Luciferase kit (Promega) and relative luciferase activity (Firefly/Nano-Luc) was used to calculate IC50 values. The relative luciferase activity was further normalized with agonists alone group as the maximum control and the vehicle group as the minimum control. (IC50 Values are grouped as A, B, C and D, whereby A: IC50<0.01 μM; B: 0.01<IC50<0.1 μM; C: 0.1<IC50<1.0 μM; D: IC50>1.0 μM)

AhR [2] = target: T2, AhR (Homo sapiens, UniProt P35869); assay: In vitro assay 3: XRE-luciferase reporter assay, agonism in human cell line (HepG2); type: cell-based; settings: HepG2 XRE-Luc, tryptophan free medium, test compound alone, 6 hours
T2 construct: host or cells: HepG2
T2 sequence (P35869 11-848): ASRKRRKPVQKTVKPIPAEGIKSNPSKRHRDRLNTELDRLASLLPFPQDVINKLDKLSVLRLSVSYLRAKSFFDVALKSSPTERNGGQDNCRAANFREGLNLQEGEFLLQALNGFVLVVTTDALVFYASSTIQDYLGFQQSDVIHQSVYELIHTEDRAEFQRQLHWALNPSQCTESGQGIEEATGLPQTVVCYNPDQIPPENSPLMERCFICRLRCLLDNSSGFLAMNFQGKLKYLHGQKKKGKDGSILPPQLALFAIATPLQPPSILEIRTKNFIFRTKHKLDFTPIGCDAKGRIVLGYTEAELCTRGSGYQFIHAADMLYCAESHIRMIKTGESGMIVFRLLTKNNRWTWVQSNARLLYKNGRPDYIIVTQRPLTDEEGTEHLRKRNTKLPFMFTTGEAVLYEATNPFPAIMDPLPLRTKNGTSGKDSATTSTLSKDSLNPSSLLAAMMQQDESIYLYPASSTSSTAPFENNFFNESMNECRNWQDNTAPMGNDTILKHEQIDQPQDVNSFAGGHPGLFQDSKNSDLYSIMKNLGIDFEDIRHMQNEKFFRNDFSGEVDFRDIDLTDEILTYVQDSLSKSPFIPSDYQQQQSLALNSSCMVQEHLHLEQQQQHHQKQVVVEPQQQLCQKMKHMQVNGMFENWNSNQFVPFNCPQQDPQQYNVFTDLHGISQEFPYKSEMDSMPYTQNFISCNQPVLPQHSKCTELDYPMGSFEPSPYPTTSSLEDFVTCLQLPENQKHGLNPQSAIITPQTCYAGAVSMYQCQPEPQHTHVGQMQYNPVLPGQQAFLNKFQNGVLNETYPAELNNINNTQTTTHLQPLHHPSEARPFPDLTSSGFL
In short: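 HepG2 cells co-transfected with XRE-firefly luciferase and constitutive Nano-luciferase reporters, plated in tryptophan-free medium with 1% dialyzed FBS, then treated with compound for 6 h at 37 °C. Firefly/Nano-Luc ratio used to derive EC50 by four-parameter nonlinear regression; TCDD as positive control.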

## CC(CO)n1cnc2c(-c3cccnc3)nc(-c3ccc(Cl)cc3)cc2c1=O (stereo not drawn) [Example 46, 6-(4-chlorophenyl)-3-(1-hydroxypropan-2-yl)-8-(pyridin-3-yl)pyrido[3,4-d]pyrimidin-4(3H)-one]
AhR [1]
  IC50: < 0.01 µM
AhR [2]; read-out: Assay 3: AhR-Luc Human Agonism (EC50)
  EC50: > 30000 nM
AhR [2]; read-out: Assay 3: AhR-Luc Human Agonism (EC50, nM), class in brackets
  EC50: > 10000 nM
